Source: patent US12037324B2, “Biarylmethyl heterocycles” (Université de Montréal, priority 2016, dated 2024)
Read-outs that look alike come from different tables or passages of the source.

Tests used:
[1] = target: T1, AGTR1 (Homo sapiens, UniProt P30556); assay: DiscoveRx IP1 accumulation assay (HTRF), agonist mode, Pathunter CHO-K1 AGTR1 β-arrestin cell line; assay type: cell-based; settings: for EC50: read-out: IP-1 EC50
T1 construct: host or cells: Pathunter CHO-K1 AGTR1 β-arrestin cell line (CHO-K1)
T1 sequence (P30556 1-359): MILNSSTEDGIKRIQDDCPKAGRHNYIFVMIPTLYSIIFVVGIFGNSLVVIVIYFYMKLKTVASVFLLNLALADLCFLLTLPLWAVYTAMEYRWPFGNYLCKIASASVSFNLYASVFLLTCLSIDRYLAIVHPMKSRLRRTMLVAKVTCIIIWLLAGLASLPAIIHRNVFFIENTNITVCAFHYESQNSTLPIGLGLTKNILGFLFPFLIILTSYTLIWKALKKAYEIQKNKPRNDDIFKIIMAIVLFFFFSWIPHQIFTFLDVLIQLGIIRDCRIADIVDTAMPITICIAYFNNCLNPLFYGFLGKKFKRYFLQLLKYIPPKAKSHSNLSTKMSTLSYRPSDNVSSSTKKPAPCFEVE
Procedure, shortened: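 Agonist mode in CHO-K1 AGTR1 β-arrestin cells plated 14-16 h before; compounds at varying concentrations for 90 min at 37° C, IP1 accumulation read by HTRF (D2-conjugate and anti-IP1 cryptate, 20 min room temperature). EC50 from 4-parameter logistic fit; activity given as percentage of maximal AII effect.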

[2] = target: T1, AGTR1; assay: DiscoveRx β-arrestin2 recruitment assay (enzyme complementation, Pathunter CHO-K1 AGTR1 β-arrestin cell line); assay type: cell-based; settings: DiscoveRx β-arrestin2 recruitment; for DiscoveRx β-arrestin2 Ymax (%): maximal response
Procedure, shortened: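 Chemiluminescent enzyme-complementation read-out of β-arrestin2 recruitment to AGTR1 in engineered CHO-K1 cells after 90 min compound exposure at 37° C. Values are 4-parameter logistic EC50s in agonist mode, IC50s in antagonist mode, with efficacy relative to the maximal All response.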

[3] = target: T2, hAT1R (Homo sapiens, UniProt P30556); assay: cell-based; settings: agonist mode; for EC50: read-out: BRET P63 EC50
T2 sequence (P30556 1-359): T1 sequence (P30556 1-359)

[4] = target: T2, hAT1R; assay: cell-based
[5] = section of the 42nd table ending at r951, example numbering restarts after the DiscoveRx section, read-out: β-arrestin2 EC50

Structure (SMILES) | IP-1 Ymax (%) [1] | EC50 [1] | EC50 [2] | DiscoveRx β-arrestin2 Ymax (%) [2] | BRET P63 Ymax [3] | EC50 [3] | BRET β-Arrestin2 Low AT1R Expression Ymax (%) ([4]; Low AT1R Expression) | EC50 ([4]; Low AT1R Expression, read-out: BRET β-Arrestin2 Low AT1R Expression EC50) | EC50 [4, 5]
Cc1ccnc(-c2ccc(-c3nn[nH]n3)c(-c3ccc(CN4C(=O)C5(CCCC5)N=C4C4CC4)cc3)c2)c1 [Example 120, 2-cyclopropyl-3-((5′-(4-methylpyridin-2-yl)-2′-(2H-tetrazol-5-yl)-[1,1′-biphenyl]-4-yl)methyl)-1,3-diazaspiro[4.4]non-1-en-4-one] | 20.7% | 75.3 nM | 12.5 nM | 44.5% | 17.8% | 18.4 nM | 50.1% | 34.3 nM | 
CCCCC1=NC2(CCOCC2)C(=O)N1Cc1ccc(-c2cc(-c3cccc(C)c3)ccc2-c2nn[nH]n2)cc1 [Example 155, 2-butyl-3-((3″-methyl-6′-(2H-tetrazol-5-yl)-[1,1′:3′,1″-terphenyl]-4-yl)methyl)-8-oxa-1,3-diazaspiro[4.5]dec-1-en-4-one] |  | > 100000 nM | 40.8 nM | 32.0% |  | > 100000 nM |  |  | 42.7 nM
CCCCC1=NC2(CCOCC2)C(=O)N1Cc1ccc(-c2cc(-c3ccccc3)ccc2-c2nnn[nH]2)cc1 [Example 156] | 7.2% | 189 nM | 85.1 nM | 19.9% |  | > 100000 nM |  |  | 250 nM
CCCCC1=NC2(CCOCC2)C(=O)N1Cc1ccc(-c2cc(-c3ccccc3O)ccc2-c2nnn[nH]2)cc1 [Example 157] | 11.4% | 60.1 nM | 30.3 nM | 44.7% | 16.5% | 37.6 nM |  |  | 61.1 nM
CCCCC1=NC2(CCOCC2)C(=O)N1Cc1ccc(-c2cc(-c3cc(C)ccn3)ccc2-c2nn[nH]n2)cc1 [Example 171, 2-butyl-3-((5′-(4-methylpyridin-2-yl)-2′-(2H-tetrazol-5-yl)-[1,1′-biphenyl]-4-yl)methyl)-8-oxa-1,3-diazaspiro[4.5]dec-1-en-4-one] | 68.1% | 8120 nM | 33.5 nM | 38.6% | 20.1% | 30.9 nM |  |  | 68.4 nM
CC1=NC2(CCOCC2)C(=O)N1Cc1ccc(-c2cc(-c3ccccc3)ccc2-c2nn[nH]n2)cc1 [Example 172, 3-((6′-(2H-tetrazol-5-yl)-[1,1′:3′,1″-terphenyl]-4-yl)methyl)-2-methyl-8-oxa-1,3-diazaspiro[4.5]dec-1-en-4-one] | 9.4% | 782 nM | 196 nM | 27.1% |  | > 10000 nM |  |  | > 10000 nM
CCc1nc2c(C)cc(C)nc2n1Cc1cnc(-c2cc(-c3ccccc3)ccc2-c2nnn[nH]2)cn1 [Example 187, 3-((5-(4-(1H-tetrazol-5-yl)-[1,1′-biphenyl]-3-yl)pyrazin-2-yl)methyl)-2-ethyl-5,7-dimethyl-3H-imidazo[4,5-b]pyridine] | 16.1% | 104 nM | 44.4 nM | 34.0% | 8.4% | 168 nM |  |  | 181 nM
CCc1nc2c(C)cc(C)nc2n1Cc1ncc(-c2cc(-c3cccc(C)c3)ccc2-c2nnn[nH]2)cn1 [Example 188, 2-ethyl-5,7-dimethyl-3-((5-(3′-methyl-4-(1H-tetrazol-5-yl)biphenyl-3-yl)pyrimidin-2-yl)methyl)-3H-imidazo[4,5-b]pyridine] | 24.2% | 173 nM | 41.7 nM | 53.3% | 17.2% | 33.1 nM |  |  | 24.6 nM
CCc1nc2c(C)cc(C)nc2n1Cc1ncc(-c2cc(-c3ccccc3O)ccc2-c2nnn[nH]2)cn1 [Example 189] | 12.7% | 18.4 nM | 9.2 nM | 53.0% | 17.5% | 32.1 nM |  |  | 49.2 nM
CCc1nc2c(C)cc(C)nc2n1Cc1ccc(-c2cc(-c3cccc(C)c3)ccc2-c2nnn[nH]2)nn1 [Example 191, 2-ethyl-5,7-dimethyl-3-((6-(3′-methyl-4-(1H-tetrazol-5-yl)biphenyl-3-yl)pyridazin-3-yl)methyl)-3H-imidazo[4,5-b]pyridine] | 29.9% | 118 nM | 20.7 nM | 53.0% | 24.2% | 101 nM |  |  | 76 nM
CCc1nc2c(C)cc(C)nc2n1Cc1ccc(-c2cc(-c3ccccn3)ccc2C(=O)O)cc1 [Example 192, 4′-((2-ethyl-5,7-dimethyl-3H-imidazo[4,5-b]pyridin-3-yl)methyl)-5-(pyridin-2-yl)biphenyl-2-carboxylic acid] | 11.1% | 223 nM | 94.3 nM | 45.1% |  | > 100000 nM |  |  | 127 nM
CCc1nc2c(C)cc(C)nc2n1Cc1ccc(-c2cc(-c3cc(C)ccn3)ccc2C(=O)O)cc1 [Example 193] | 25.0% | 132 nM | 52.2 nM | 60.7% | 29.3% | 160 nM |  |  | 133 nM
CCc1nc2c(C)cc(C)nc2n1Cc1ccc(-c2cc(-c3cc(C)cc(C)n3)ccc2C(=O)O)cc1 [Example 194] | 14.5% | 214 nM | 63.2 nM | 36.6% | 16.2% | 278 nM |  |  | 295 nM
CCc1nc2c(C)cc(C)nc2n1Cc1cnc(-c2cc(-c3cccc(C)c3)ccc2-c2nnn[nH]2)nc1 [Example 197, 2-ethyl-5,7-dimethyl-3-((2-(3′-methyl-4-(1H-tetrazol-5-yl)biphenyl-3-yl)pyrimidin-5-yl)methyl)-3H-imidazo[4,5-b]pyridine] | 5.7% | 493 nM | 282 nM | 20.2% |  | > 100000 nM |  |  | > 10000 nM
CCc1nc2c(C)cc(C)nc2n1Cc1ccc(-c2cc(-n3ncc4ccccc43)ccc2-c2nnn[nH]2)cc1 [Example 215, 3-((5′-(1H-Indazol-1-yl)-2′-(1H-tetrazol-5-yl)-[1,1′-biphenyl]-4-yl)methyl)-2-ethyl-5,7-dimethyl-3H-imidazo[4,5-b]pyridine] | 17.3% | 17.6 nM | 5.1 nM | 46.1% | 22.7% | 4 nM |  |  | 4.1 nM
CCc1nc2c(C)cc(C)nc2n1Cc1ccc(-c2cc(-n3cc4ccccc4n3)ccc2-c2nnn[nH]2)cc1 [Example 216, 3-((5′-(2H-Indazol-2-yl)-2′-(1H-tetrazol-5-yl)-[1,1′-biphenyl]-4-yl)methyl)-2-ethyl-5,7-dimethyl-3H-imidazo[4,5-b]pyridine] | 10.6% | 29.1 nM | 9.6 nM | 33.4% | 10.1% | 1.8 nM |  |  | 6.6 nM
CCc1nc2c(C)cc(C)nc2n1Cc1ccc(-c2cc(-n3cc(C)cn3)ccc2-c2nnn[nH]2)cc1 [Example 217, 2-ethyl-5,7-dimethyl-3-((5′-(4-methyl-1H-pyrazol-1-yl)-2′-(1H-tetrazol-5-yl)-[1,1′-biphenyl]-4-yl)methyl)-3H-imidazo[4,5-b]pyridine] | 21.8% | 22.5 nM | 4.6 nM | 70.3% | 32.1% | 2.7 nM |  |  | 3 nM
CCc1nc2c(C)cc(C)nc2n1Cc1ccc(-c2cc(-n3ccc(C)n3)ccc2-c2nnn[nH]2)cc1 [Example 218] | 4.6% | 33.3 nM | 45.9 nM | 21.5% |  | > 10000 nM |  |  | > 10000 nM
CCc1nc2c(C)cc(C)nc2n1Cc1ccc(-c2cc(-n3cnc4ccccc43)ccc2-c2nnn[nH]2)cc1 [Example 222] | 4.9% | 187 nM | 56.9 nM | 42.7% |  | > 100000 nM |  |  | 98.5 nM
CCc1cn(-c2ccc(-c3nnn[nH]3)c(-c3ccc(Cn4c(CC)nc5c(C)cc(C)nc54)cc3)c2)nn1 [Example 231] | 8.4% | 30.1 nM | 28.7 nM | 36.8% | 13.8% | 36.2 nM |  |  | 98.8 nM
